Experiments:
Format in all cases: in vivo
[1] = test system: Echinochloa crus-galli var. crus-galli; test: Test Example 3: herbicidal effect by foliage application, Wagner pot (symbol H); details: application herbicide amount 320 g/ha
How it was run: (§1)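 The compound, formulated as an emulsion and diluted with water to a predetermined rate, is applied uniformly to leaves of two-week-old seedlings growing in submerged alluvial soil at 25–30 °C. Rice is included. Each plant is assessed 3 weeks later using defined criteria.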

Galium spurium = test: Test Example 5: herbicidal effect by foliage application, plastic box (symbol Q); details: 320 g/ha, 3 weeks after application
How it was run: (§2)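 Effect is rated 3 weeks after a foliar spray of water-diluted emulsion concentrate at a predetermined herbicide amount. Plants had grown 14 days in a 25° C. to 30° C. greenhouse from seed in sterilized diluvial soil.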

Abutilon theophrasti = test: Test Example 5: herbicidal effect by foliage application, plastic box (symbol M); details: 320 g/ha, 3 weeks after application
How it was run: as §2

Alopecurus myosuroides [2] = test: Test Example 5: herbicidal effect by foliage application, plastic box (symbol J); details: 320 g/ha, 3 weeks after application
How it was run: as §2

rapeseed = test: Test Example 4: effect on crop by soil treatment (symbol g); details: application herbicide amount 320 g/ha
How it was run: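 Seeds were sown in spots on sterilized diluvial soil in a plastic box and covered with about 1.5 cm of soil. Plants were then grown in a greenhouse at 25° C. to 30° C.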

Apera spica-venti = test: Test Example 5: herbicidal effect by foliage application, plastic box (symbol L); details: 320 g/ha, 3 weeks after application
How it was run: as §2

wheat = test: Test Example 5: effect on crop by foliage application, plastic box (symbol e); details: 320 g/ha, 3 weeks after application
How it was run: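 Plants were raised from seed in a greenhouse (25° C. to 30° C.) after sowing in a plastic box of sterilized diluvial soil.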

Leptochloa chinensis = test: Test Example 3: herbicidal effect by foliage application, Wagner pot (symbol D); details: application herbicide amount 320 g/ha
How it was run: as §1

Scirpus juncoides = test: Test Example 1: herbicidal activity, application before weed generation in submerged conditions (symbol B); details: application herbicide amount 320 g/ha
How it was run: (§3)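 Compound emulsion was diluted to a set herbicide amount and applied to the water surface on the sowing day, into submerged (4 cm) alluvial-soil pots sown with mixed weed seeds and transplanted 2.5-leaf rice. Pots were held in a 25–30 °C greenhouse, and weeds were scored 0–5 by herbicidal ratio after 3 weeks.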

[3] = test system: Echinochloa oryzacola Vasing.; test: Test Example 1: herbicidal activity, application before weed generation in submerged conditions (symbol A); details: application herbicide amount 320 g/ha
How it was run: as §3

Alopecurus myosuroides [4] = test: Test Example 4: herbicidal effect by soil treatment (symbol J); details: application herbicide amount 320 g/ha
How it was run: (§4)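 Seeds were sown in sterilized diluvial soil, covered with about 1.5 cm of soil, and the soil surface was sprayed with a water-diluted emulsion of the compound at a predetermined rate. Plants grew in a greenhouse at 25° C. to 30° C.; effects were scored visually 3 weeks after application.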

corn = test: Test Example 4: effect on crop by soil treatment (symbol c); details: application herbicide amount 320 g/ha
How it was run: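 Grown at 25° C. to 30° C. in a greenhouse, the crops came from seed sown spot-wise in sterilized diluvial soil under roughly 1.5 cm of covering soil.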

Stellaria media = test: Test Example 5: herbicidal effect by foliage application, plastic box (symbol P); details: 320 g/ha, 3 weeks after application
How it was run: as §2

Digitaria ciliaris = test: Test Example 4: herbicidal effect by soil treatment (symbol F); details: application herbicide amount 320 g/ha
How it was run: as §4

[5] = test system: directly sowed rice plant; test: Test Example 3: effect on crop by foliage application, Wagner pot (symbol b); details: application herbicide amount 320 g/ha
How it was run: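 Plants are raised from seed in flooded paddy conditions: water stands 0.1–0.5 cm over alluvial soil, and the pot is kept in a greenhouse at 25–30 °C. Species sown are barnyardgrass (E. crus-galli var. crus-galli), Leptochloa chinensis, Cyperus difformis and rice.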

Cyperus difformis = test: Test Example 3: herbicidal effect by foliage application, Wagner pot (symbol E); details: application herbicide amount 320 g/ha
How it was run: as §1

Row | SMILES | herbicidal effect on H (Echinochloa crus-galli var. crus-galli), grade 0-5 [1] | Q: Galium spurium, herbicidal effect grade (Galium spurium) | M: Abutilon theophrasti, herbicidal effect grade (Abutilon theophrasti) | J: Alopecurus myosuroides, herbicidal effect grade (Alopecurus myosuroides [2]) | g (rapeseed) effect on crop grade (rapeseed) | L: Apera spica-venti, herbicidal effect grade (Apera spica-venti) | e: wheat, effect on crop grade (wheat) | herbicidal effect on D (Leptochloa chinensis), grade 0-5 (Leptochloa chinensis) | Herbicidal effect grade, B: Scirpus juncoides (Scirpus juncoides) | Herbicidal effect grade, A: Echinochloa oryzacola Vasing. [3] | J (Alopecurus myosuroides) herbicidal effect grade (Alopecurus myosuroides [4]) | c (corn) effect on crop grade (corn) | P: Stellaria media, herbicidal effect grade (Stellaria media) | F (Digitaria ciliaris) herbicidal effect grade (Digitaria ciliaris) | effect on crop b (directly sowed rice plant), grade 0-5 [5] | herbicidal effect on E, grade 0-5 (Cyperus difformis)
1 | CON=C(C)CC1CC(OC)=C(c2c(C)cc(C)cc2C)C1=O (stereo not drawn) [1-001, 2-mesityl-3-methoxy-5-{2-(methoxyimino)propyl}cyclopent-2-enone] | 0 (Herbicidal ratio of 5% or lower (almost no effect)) | 0 (Herbicidal ratio of 5% or lower (almost no effect)) | 0 (Herbicidal ratio of 5% or lower (almost no effect)) | 0 (Herbicidal ratio of 5% or lower (almost no effect)) | 0 (Herbicidal ratio of 5% or lower (almost no effect)) | 0 (Herbicidal ratio of 5% or lower (almost no effect)) | 0 (Herbicidal ratio of 5% or lower (almost no effect)) | 0 (Herbicidal ratio of 5% or lower (almost no effect)) | 0 (Herbicidal ratio of 5% or lower (almost no effect)) | 0 (Herbicidal ratio of 5% or lower (almost no effect)) | 0 (Herbicidal ratio of 5% or lower (almost no effect)) | 0 (Herbicidal ratio of 5% or lower (almost no effect)) | 0 (Herbicidal ratio of 5% or lower (almost no effect)) | 0 (Herbicidal ratio of 5% or lower (almost no effect)) | 0 (Herbicidal ratio of 5% or lower (almost no effect)) | 0 (Herbicidal ratio of 5% or lower (almost no effect))
2 | CON=C(C)CC1CC(O)=C(c2c(C)cc(C)cc2C)C1=O (stereo not drawn) [1-002, 3-hydroxy-2-mesityl-5-{2-(methoxyimino)propyl}cyclopent-2-enone] | 5 (Herbicidal ratio of 90% or more (almost completely withered)) | 4 (Herbicidal ratio of 70% or higher and lower than 90%) | 4 (Herbicidal ratio of 70% or higher and lower than 90%) | 5 (Herbicidal ratio of 90% or more (almost completely withered)) | 5 (Herbicidal ratio of 90% or more (almost completely withered)) | 5 (Herbicidal ratio of 90% or more (almost completely withered)) | 5 (Herbicidal ratio of 90% or more (almost completely withered)) | 5 (Herbicidal ratio of 90% or more (almost completely withered)) | 4 (Herbicidal ratio of 70% or higher and lower than 90%) | 5 (Herbicidal ratio of 90% or more (almost completely withered)) | 5 (Herbicidal ratio of 90% or more (almost completely withered)) | 4 (Herbicidal ratio of 70% or higher and lower than 90%) | 4 (Herbicidal ratio of 70% or higher and lower than 90%) | 5 (Herbicidal ratio of 90% or more (almost completely withered)) | 5 (Herbicidal ratio of 90% or more (almost completely withered)) | 5 (Herbicidal ratio of 90% or more (almost completely withered))
3 | CCON=C(C)CC1CC(O)=C(c2c(C)cc(C)cc2C)C1=O (stereo not drawn) [1-003] | 5 (Herbicidal ratio of 90% or more (almost completely withered)) | 3 (Herbicidal ratio of 40% or higher and lower than 70%) | 4 (Herbicidal ratio of 70% or higher and lower than 90%) | 5 (Herbicidal ratio of 90% or more (almost completely withered)) | 4 (Herbicidal ratio of 70% or higher and lower than 90%) | 5 (Herbicidal ratio of 90% or more (almost completely withered)) | 5 (Herbicidal ratio of 90% or more (almost completely withered)) | 5 (Herbicidal ratio of 90% or more (almost completely withered)) | 4 (Herbicidal ratio of 70% or higher and lower than 90%) | 5 (Herbicidal ratio of 90% or more (almost completely withered)) | 5 (Herbicidal ratio of 90% or more (almost completely withered)) | 5 (Herbicidal ratio of 90% or more (almost completely withered)) | 2 (Herbicidal ratio of 20% or higher and lower than 40%) | 5 (Herbicidal ratio of 90% or more (almost completely withered)) | 5 (Herbicidal ratio of 90% or more (almost completely withered)) | 5 (Herbicidal ratio of 90% or more (almost completely withered))
4 | CON=C(C)CC1CC(OC(=O)C2(C)CC2(Cl)Cl)=C(c2c(C)cc(C)cc2C)C1=O (stereo not drawn) [1-036] | 5 (Herbicidal ratio of 90% or more (almost completely withered)) | 0 (Herbicidal ratio of 5% or lower (almost no effect)) | 4 (Herbicidal ratio of 70% or higher and lower than 90%) | 5 (Herbicidal ratio of 90% or more (almost completely withered)) | 5 (Herbicidal ratio of 90% or more (almost completely withered)) | 5 (Herbicidal ratio of 90% or more (almost completely withered)) | 5 (Herbicidal ratio of 90% or more (almost completely withered)) | 5 (Herbicidal ratio of 90% or more (almost completely withered)) | 4 (Herbicidal ratio of 70% or higher and lower than 90%) | 5 (Herbicidal ratio of 90% or more (almost completely withered)) | 5 (Herbicidal ratio of 90% or more (almost completely withered)) | 3 (Herbicidal ratio of 40% or higher and lower than 70%) |  | 5 (Herbicidal ratio of 90% or more (almost completely withered)) | 5 (Herbicidal ratio of 90% or more (almost completely withered)) | 5 (Herbicidal ratio of 90% or more (almost completely withered))
5 | COCCOC1=C(c2c(C)cc(C)cc2C)C(=O)C(CC(C)=NOC)C1 (stereo not drawn) [1-037] | 0 (Herbicidal ratio of 5% or lower (almost no effect)) | 0 (Herbicidal ratio of 5% or lower (almost no effect)) | 0 (Herbicidal ratio of 5% or lower (almost no effect)) | 0 (Herbicidal ratio of 5% or lower (almost no effect)) | 0 (Herbicidal ratio of 5% or lower (almost no effect)) | 0 (Herbicidal ratio of 5% or lower (almost no effect)) | 0 (Herbicidal ratio of 5% or lower (almost no effect)) | 0 (Herbicidal ratio of 5% or lower (almost no effect)) | 0 (Herbicidal ratio of 5% or lower (almost no effect)) | 0 (Herbicidal ratio of 5% or lower (almost no effect)) | 0 (Herbicidal ratio of 5% or lower (almost no effect)) | 0 (Herbicidal ratio of 5% or lower (almost no effect)) |  | 0 (Herbicidal ratio of 5% or lower (almost no effect)) | 0 (Herbicidal ratio of 5% or lower (almost no effect)) | 0 (Herbicidal ratio of 5% or lower (almost no effect))

From patent US11000033B2, “Ketone or oxime compound, and herbicide” (NISSAN CHEMICAL CORPORATION, priority 2014, dated 2021)
